From patent US10555987B2, “GHRH agonists for the treatment of ischemic disorders” (UNIVERSITY OF MIAMI, priority 2012, dated 2020) come the findings set out here.

Assay [1] has as its target T1, GHRH receptor (Homo sapiens, UniProt Q02643).
T1 sequence (Q02643 23-423): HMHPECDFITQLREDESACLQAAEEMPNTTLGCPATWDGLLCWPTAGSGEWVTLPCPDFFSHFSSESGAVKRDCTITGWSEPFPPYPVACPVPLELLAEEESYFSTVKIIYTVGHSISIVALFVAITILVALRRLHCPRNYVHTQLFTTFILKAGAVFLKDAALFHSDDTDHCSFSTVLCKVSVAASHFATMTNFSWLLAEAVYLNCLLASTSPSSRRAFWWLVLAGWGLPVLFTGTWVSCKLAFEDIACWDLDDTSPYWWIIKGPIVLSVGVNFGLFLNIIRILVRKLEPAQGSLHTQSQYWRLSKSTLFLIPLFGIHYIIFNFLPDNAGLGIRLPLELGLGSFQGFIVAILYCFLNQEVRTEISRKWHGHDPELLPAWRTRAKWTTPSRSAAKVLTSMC
Description: GHRH receptor binding, competition with 125I-labeled [His1,Nle27]hGHRH(1-32)NH2, human pituitary membrane homogenates (Table 6). On the set-up: Normal human pituitaries were purchased from the National Hormone and Peptide Program; tissue National Hormone and Peptide Program (A.F. Parlow, Harbor-UCLA Medical Center, Torrance, Calif.); host or cells: normal human pituitary, membrane fraction. The note with it: for Relative affinity (Binding potency) vs GHRH: GHRH(1-29) = 1, Table 6. An excerpt:
(§1) Normal human pituitaries were purchased from the National Hormone and Peptide Program (A.F. Parlow, Los Angeles, County Harbor-UCLA Medical Center, Torrance, Calif.).

The subject of assay [2] is GH release. Description: GH releasing potency in vivo, intravenous administration (Example 14, Table 13). More on the design: species or system rat. The note with it: i.v. On the procedure:
Male Sprague-Dawley rats, weighing 200-250 g, were purchased from Charles River Laboratory (Wilmington, Mass.) and used for experiments. All animal procedures were approved by the Veterans Affairs Animal Care and Use Committee and were conducted in accordance with additional institutional guidelines as well. Briefly, groups of 5-6 animals were used in each experiment. The rats were anesthetized with 50 mg/kg of sodium pentobarbital (Nembutal, Lundbeck Inc., Deerfield, Ill.). Twenty min after inducing anesthesia, GHRH(1-29)NH2, JI-38, or new analogs were injected into the animals intravenously (i.v.) or subcutaneously (s.c.). The peptides were dissolved in 0.01 M acetic acid to get 1 μg/μl stock solution, and then diluted with 5% mannitol. Control rats received 5% mannitol only. Blood samples were collected from the jugular vein at selected times and were used for serum preparation. Concentrations of GH in rat sera were determined by ELISA. The relative potencies of tested peptides were calculated using GHRH(1-29)NH2 and JI-38 for comparison, whose potency was defined as 1. The equivalent dosage of GHRH(1-29)NH2 to reach the same level of serum growth hormone release after injection of the specific tested peptide was determined from a GHRH(1-29)NH2 standard curve using Origin 6.0 software. […] Serum GH was determined using the rat Growth Hormone ELISA kit (ALPCO Diagnostics, Mill Valley, Calif.) according to the manufacturer's instruction. Absorbance at 405 nm was measured by a Victor 3 Multi-label Counter (Perkin-Elmer, Waltham, Md.).

For assay [3], the system named is GH release. The experiment in a line: GH releasing potency in vivo, subcutaneous administration (Example 14, Table 12). On the set-up: species or system rat. The settings on record: s.c. The procedure, abridged:
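Potency is expressed relative to GHRH(1-29)NH2 and JI-38 (each = 1), via equivalent GHRH(1-29)NH2 dose read from a standard curve. Peptides in 5% mannitol given i.v. or s.c. to anaesthetised male Sprague-Dawley rats (200-250 g); serum GH measured by ELISA at selected times.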

Assay [4] has as its system GH release. Description: In vivo endocrine activity, GH release after intravenous administration (Table 8). The settings on record: rat, i.v. injection.
The target of assay [5] is T1, GHRH receptor. The experiment in a line: Receptor binding in vitro, 125I-labeled [His1,Nle27]-hGHRH(1-32)NH2, membrane receptors of human anterior pituitary cells (Table 14).
Description: Normal human pituitary was purchased from the National Hormone and Peptide Program (UCLA Medical Center, Torrance, Calif.).
The subject of assay [6] is GH release. Description: In vivo endocrine activity, GH release after subcutaneous administration (Table 9). The settings on record: rat, subcutaneous (s.c.) injection. On the procedure: Subcutaneous Administration. Adult male rats were used and anesthetized with pentobarbital (6 mg/100 g, b.w.), by i.p. injection. […] Blood samples were taken from the jugular vein 5, 15 and/or 30 minutes after the injection. The blood samples were centrifuged, plasma was removed and the GH level was measured byELISA. The results are summarized in terms of potency in Table 9.

Assay [7] deals with T1, GHRH receptor. Description: GHRH receptor binding, competition with 125I-labeled JV-1-42, human pituitary membrane homogenates (Table 7). On the set-up: Normal human pituitaries were purchased from the National Hormone and Peptide Program; tissue National Hormone and Peptide Program (A.F. Parlow, Harbor-UCLA Medical Center, Torrance, Calif.); host or cells: normal human pituitary, membrane fraction. The settings on record: JI-38 = 1, Table 7.
Excerpt: as §1

Molecules are shown by their SMILES. Non-standard residues stand in square brackets, D forms with d. Residues, ends and D or L forms follow the SMILES beside them. *: point of attachment. Desaminotyrosyl = O=C(CCc1ccc(O)cc1)*; Agmatine = N=C(N)NCCCCN*; Nle = CCCC[C@H](N)C(=O)O; Orn = NCCC[C@H](N)C(=O)O; dAbu = CC[C@@H](N)C(=O)O; Abu = CC[C@H](N)C(=O)O; Aoc = NCCCCCCCC(=O)O; GABA = NCCCC(=O)O

For the compound `CCCC[C@H](NC(=O)[C@@H](NC(=O)[C@H](CC(=O)O)NC(=O)[C@H](CCC(N)=O)NC(=O)[C@H](CC(C)C)NC(=O)[C@H](CC(C)C)NC(=O)[C@H](CCCN)NC(=O)[C@H](CCCNC(=N)N)NC(=O)[C@H](C)NC(=O)[C@H](CO)NC(=O)[C@H](CC(C)C)NC(=O)[C@H](CCC(N)=O)NC(=O)[C@H](CC)NC(=O)[C@H](CC(C)C)NC(=O)[C@@H](NC(=O)[C@H](CCCN)NC(=O)[C@H](CCCNC(=N)N)NC(=O)[C@H](Cc1ccc(O)cc1)NC(=O)[C@H](CO)NC(=O)[C@H](CC(N)=O)NC(=O)[C@@H](NC(=O)[C@H](Cc1ccccc1)NC(=O)[C@@H](NC(=O)[C@H](C)NC(=O)[C@H](CC(=O)O)NC(=O)[C@H](C)NC(=O)CCc1ccc(O)cc1)[C@@H](C)CC)[C@@H](C)O)C(C)C)[C@@H](C)CC)C(=O)N[C@@H](CC(=O)O)C(=O)NCCCCNC(=N)N` [JI-34, reference compound] (Desaminotyrosyl-ADAIFTNSYR[Orn]VL[Abu]QLSAR[Orn]LLQDI[Nle]D-Agmatine; N-terminus and C-terminus assumed), the “Relative affinity (Binding potency) vs GHRH” value (“Relative affinity … vs GHRH” below) on GHRH receptor [1] is 4.32.
For `CCCC[C@H](NC(=O)[C@@H](NC(=O)[C@H](CC(=O)O)NC(=O)[C@H](CCC(N)=O)NC(=O)[C@H](CC(C)C)NC(=O)[C@H](CC(C)C)NC(=O)[C@H](CCCN)NC(=O)[C@H](CCCNC(=N)N)NC(=O)[C@H](C)NC(=O)[C@H](CO)NC(=O)[C@H](CC(C)C)NC(=O)[C@H](CCC(N)=O)NC(=O)[C@H](CC)NC(=O)[C@H](CC(C)C)NC(=O)[C@@H](NC(=O)[C@H](CCCN)NC(=O)[C@H](CCCNC(=N)N)NC(=O)[C@H](Cc1ccc(O)cc1)NC(=O)[C@H](CO)NC(=O)[C@@H](NC(=O)[C@@H](NC(=O)[C@H](Cc1ccccc1)NC(=O)[C@@H](NC(=O)[C@H](C)NC(=O)[C@H](CC(=O)O)NC(=O)[C@H](C)NC(=O)CCc1ccc(O)cc1)[C@@H](C)CC)[C@@H](C)O)[C@@H](C)O)C(C)C)[C@@H](C)CC)C(=O)N[C@@H](CC(=O)O)C(=O)NCCCCNC(=N)N` [JI-36, reference compound] (Desaminotyrosyl-ADAIFTTSYR[Orn]VL[Abu]QLSAR[Orn]LLQDI[Nle]D-Agmatine; N-terminus and C-terminus assumed), on GHRH receptor [1], the “Relative affinity … vs GHRH” value is 3.25.
Regarding `CCCC[C@H](NC(=O)[C@@H](NC(=O)[C@H](CC(=O)O)NC(=O)[C@H](CCC(N)=O)NC(=O)[C@H](CC(C)C)NC(=O)[C@H](CC(C)C)NC(=O)[C@H](CCCN)NC(=O)[C@H](CCCNC(=N)N)NC(=O)[C@H](C)NC(=O)[C@H](CO)NC(=O)[C@H](CC(C)C)NC(=O)[C@H](CCC(N)=O)NC(=O)[C@H](CC)NC(=O)[C@H](CC(C)C)NC(=O)[C@@H](NC(=O)[C@H](CCCN)NC(=O)[C@H](CCCNC(=N)N)NC(=O)[C@H](Cc1ccc(O)cc1)NC(=O)[C@H](CO)NC(=O)[C@H](CCC(N)=O)NC(=O)[C@@H](NC(=O)[C@H](Cc1ccccc1)NC(=O)[C@@H](NC(=O)[C@H](C)NC(=O)[C@H](CC(=O)O)NC(=O)[C@@H](C)NC(=O)CCc1ccc(O)cc1)[C@@H](C)CC)[C@@H](C)O)C(C)C)[C@@H](C)CC)C(=O)N[C@@H](CC(=O)O)C(=O)N[C@@H](CCCNC(=N)N)C(=O)NCCCCCCCC(N)=O` [Peptide P-21304, [Dat^1, D-Ala^2, Gln^8, Orn^12, Abu^15, Orn^21, Nle^27, Asp^28, Amc^30]hGHRH(1-30)NH2] (Desaminotyrosyl-[dA]DAIFTQSYR[Orn]VL[Abu]QLSAR[Orn]LLQDI[Nle]DR[Aoc]-NH2), the “Relative affinity … vs GHRH” value at GHRH receptor [1] is given as 74.0. Further, the “Relative affinity (Binding potency) vs JI-38” value at GHRH receptor [1] (JI-38 = 1, Table 6) is 24.4.
For the compound `CCCC[C@H](NC(=O)[C@@H](NC(=O)[C@H](CC(=O)O)NC(=O)[C@H](CCC(N)=O)NC(=O)[C@H](CC(C)C)NC(=O)[C@H](CC(C)C)NC(=O)[C@H](CCCN)NC(=O)[C@H](CCCNC(=N)N)NC(=O)[C@H](C)NC(=O)[C@H](CO)NC(=O)[C@H](CC(C)C)NC(=O)[C@H](CCC(N)=O)NC(=O)[C@H](CC)NC(=O)[C@H](CC(C)C)NC(=O)[C@@H](NC(=O)[C@H](CCCN)NC(=O)[C@H](CCCNC(=N)N)NC(=O)[C@H](Cc1ccc(O)cc1)NC(=O)[C@H](CO)NC(=O)[C@H](CC(N)=O)NC(=O)[C@@H](NC(=O)[C@H](Cc1ccccc1)NC(=O)[C@@H](NC(=O)[C@H](C)NC(=O)[C@H](CC(=O)O)NC(=O)[C@@H](CC)NC(=O)CCc1ccc(O)cc1)[C@@H](C)CC)[C@@H](C)O)C(C)C)[C@@H](C)CC)C(=O)N[C@@H](CO)C(=O)N[C@@H](CCCNC(=N)N)C(=O)NCCCC(N)=O` [Peptide P-25504, [Dat^1, D-Abu^2, Orn^12, Abu^15, Orn^21, Nle^27, Gab^30]hGHRH(1-30)NH2] (Desaminotyrosyl-[dAbu]DAIFTNSYR[Orn]VL[Abu]QLSAR[Orn]LLQDI[Nle]SR[GABA]-NH2), the “Relative potency, 5 min” value in the assay with GH release [2] (5 min, JI-38 = 1) was found to be 1.55. Further, the “Relative potency, 15 min” value in the assay on GH release [2] (15 min, JI-38 = 1) came to 1.50. Also, the “Serum GH level at selected time after injection (ng/ml), 0 min” value was determined as 25.7 ± 6.3 ng/mL in the assay with GH release [2] (dose 1 μg/kg, 0 min, mean ± SEM) and 25.4 ± 4.1 ng/mL with GH release [3] (male rats, dose 3 μg/kg, 0 min, mean ± SEM). In addition, the “Serum GH level at selected time after injection (ng/ml), 5 min” value with GH release [2] (dose 1 μg/kg, 5 min, mean ± SEM) turned out to be 832 ± 214 ng/mL. The “Serum GH level at selected time after injection (ng/ml), 15 min” value in the assay with GH release [2] (dose 1 μg/kg, 15 min, mean ± SEM) came out at 297 ± 45.6 ng/mL; with GH release [3] (male rats, dose 3 μg/kg, 15 min, mean ± SEM), 200.0 ± 10.7 ng/mL. Moreover, in the assay with GH release [3] (male rats, dose 3 μg/kg, 30 min, mean ± SEM), the “Serum GH level at selected time after injection (ng/ml), 30 min” value was 130.0 ± 19.1 ng/mL. Also, the “Relative potency compared to GHRH(1-29), 15 min” value in the assay on GH release [3] (15 min) turned out to be 52.6. Also, in the assay with GH release [3] (15 min), the “Relative potency compared to JI-38, 15 min” value was found to be 0.83. For the same compound, the “Relative potency compared to GHRH(1-29), 30 min” value with GH release [3] (30 min) amounted to 113.8. Also, the “Relative potency compared to JI-38, 30 min” value in the assay on GH release [3] (30 min) is 1.02. Further, the “GH releasing potency in vivo relative to JI-38 (=1)” value in the assay with GH release [4] (5 min after) is on record as 1.66; with GH release [4] (15 min after), 1.65; with GH release [4] (30 min after) it was 1.37. On GHRH receptor [5] (JI-38 = 1), the “Relative affinity (Binding potency) compared to JI-38” value stood at 0.96. Further, the “Relative affinity (Binding potency) compared to hGHRH(1-29)” value at GHRH receptor [5] (hGHRH(1-29)NH2 = 1) amounted to 2.68. Besides, the figures for the “GH releasing potency relative to JI-38 (=1)” value in the assay on GH release [6] (15 min after) and in the assay with GH release [6] (30 min after) were 0.78 and 0.98, respectively. Also, the “Relative affinity (Binding potency) vs JI-38” value at GHRH receptor [7] came out at 3.02.
